This note sets out measurements from ChEMBL document CHEMBL1145498, “A systematic interaction map of validated kinase inhibitors with Ser/Thr kinases” (Proc Natl Acad Sci U S A, 2007).

Each structure is given as a SMILES string.

Assay [1] deals with Glycogen synthase kinase-3 beta (Homo sapiens, UniProt P49841).
In assay [2] the target is Calcium/calmodulin-dependent protein kinase type 1G (Homo sapiens) (UniProt Q96NX5).
Assay [3] deals with Serine/threonine-protein kinase 26 (Homo sapiens) (UniProt Q9P289).
Serine/threonine-protein kinase 26 (Homo sapiens), sequence (Q9P289 2-416 limits assumed): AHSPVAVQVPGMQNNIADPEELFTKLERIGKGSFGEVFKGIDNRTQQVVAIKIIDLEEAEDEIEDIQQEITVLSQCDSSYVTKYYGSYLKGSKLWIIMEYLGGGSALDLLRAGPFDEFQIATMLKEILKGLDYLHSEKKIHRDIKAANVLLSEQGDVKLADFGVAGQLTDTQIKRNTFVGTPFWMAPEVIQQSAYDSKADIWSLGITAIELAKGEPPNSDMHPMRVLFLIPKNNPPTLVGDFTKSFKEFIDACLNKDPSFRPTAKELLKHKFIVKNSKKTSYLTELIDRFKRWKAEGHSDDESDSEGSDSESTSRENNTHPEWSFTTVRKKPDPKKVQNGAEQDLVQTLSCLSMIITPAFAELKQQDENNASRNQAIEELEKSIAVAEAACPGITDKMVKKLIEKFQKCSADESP
Assay [4] concerns the target Serine/threonine-protein kinase pim-2 (Homo sapiens, UniProt Q9P1W9).
In assay [5] the target is Calcium/calmodulin-dependent protein kinase type II subunit delta (Homo sapiens) (UniProt Q13557).
Calcium/calmodulin-dependent protein kinase type II subunit delta (Homo sapiens), sequence (Q13557 whole entry): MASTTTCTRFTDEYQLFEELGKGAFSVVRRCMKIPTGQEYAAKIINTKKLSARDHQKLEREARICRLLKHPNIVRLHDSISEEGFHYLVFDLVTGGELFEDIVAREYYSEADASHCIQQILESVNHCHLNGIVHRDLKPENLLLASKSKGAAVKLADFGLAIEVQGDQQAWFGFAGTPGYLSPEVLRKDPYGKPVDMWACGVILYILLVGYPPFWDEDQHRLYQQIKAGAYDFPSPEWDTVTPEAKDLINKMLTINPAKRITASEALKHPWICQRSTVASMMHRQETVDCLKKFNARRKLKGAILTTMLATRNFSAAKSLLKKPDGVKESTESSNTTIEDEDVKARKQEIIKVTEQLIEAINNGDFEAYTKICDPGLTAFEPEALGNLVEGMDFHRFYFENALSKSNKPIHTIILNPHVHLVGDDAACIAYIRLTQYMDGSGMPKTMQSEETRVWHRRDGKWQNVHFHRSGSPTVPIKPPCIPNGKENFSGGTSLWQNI
The target in assay [6] is Calcium/calmodulin-dependent protein kinase type II subunit alpha (Homo sapiens) (UniProt Q9UQM7).
Calcium/calmodulin-dependent protein kinase type II subunit alpha (Homo sapiens), sequence (Q9UQM7 whole entry): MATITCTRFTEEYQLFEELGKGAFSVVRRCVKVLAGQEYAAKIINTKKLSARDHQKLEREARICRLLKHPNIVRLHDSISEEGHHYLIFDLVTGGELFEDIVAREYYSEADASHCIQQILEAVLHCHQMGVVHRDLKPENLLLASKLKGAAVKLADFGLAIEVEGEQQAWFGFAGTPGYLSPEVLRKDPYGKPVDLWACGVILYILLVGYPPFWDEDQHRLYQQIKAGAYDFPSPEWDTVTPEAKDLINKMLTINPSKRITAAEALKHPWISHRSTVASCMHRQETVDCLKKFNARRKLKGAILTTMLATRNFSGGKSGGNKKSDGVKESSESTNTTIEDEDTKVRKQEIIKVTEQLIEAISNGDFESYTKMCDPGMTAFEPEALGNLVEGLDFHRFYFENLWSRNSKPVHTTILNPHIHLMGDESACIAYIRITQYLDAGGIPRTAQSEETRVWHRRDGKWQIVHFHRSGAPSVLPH
For assay [7], the target named is Mitogen-activated protein kinase 3 (Homo sapiens, UniProt P27361).
For assay [8], the target named is Serine/threonine-protein kinase Nek6 (Homo sapiens) (UniProt Q9HC98).
Serine/threonine-protein kinase Nek6 (Homo sapiens), sequence (Q9HC98 whole entry): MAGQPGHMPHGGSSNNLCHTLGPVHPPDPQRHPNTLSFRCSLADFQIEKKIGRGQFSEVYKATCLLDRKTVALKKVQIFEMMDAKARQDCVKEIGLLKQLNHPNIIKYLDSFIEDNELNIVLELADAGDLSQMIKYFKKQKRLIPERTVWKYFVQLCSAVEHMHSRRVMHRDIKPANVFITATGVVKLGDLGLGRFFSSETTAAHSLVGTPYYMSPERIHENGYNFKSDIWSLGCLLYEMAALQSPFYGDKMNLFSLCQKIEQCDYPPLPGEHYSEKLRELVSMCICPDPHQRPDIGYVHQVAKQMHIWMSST
Assay [9] deals with Tyrosine-protein kinase JAK1 (Homo sapiens) (UniProt P23458).
Assay [10] deals with Serine/threonine-protein kinase PLK1 (Homo sapiens) (UniProt P53350).
Serine/threonine-protein kinase PLK1 (Homo sapiens), sequence (P53350 whole entry): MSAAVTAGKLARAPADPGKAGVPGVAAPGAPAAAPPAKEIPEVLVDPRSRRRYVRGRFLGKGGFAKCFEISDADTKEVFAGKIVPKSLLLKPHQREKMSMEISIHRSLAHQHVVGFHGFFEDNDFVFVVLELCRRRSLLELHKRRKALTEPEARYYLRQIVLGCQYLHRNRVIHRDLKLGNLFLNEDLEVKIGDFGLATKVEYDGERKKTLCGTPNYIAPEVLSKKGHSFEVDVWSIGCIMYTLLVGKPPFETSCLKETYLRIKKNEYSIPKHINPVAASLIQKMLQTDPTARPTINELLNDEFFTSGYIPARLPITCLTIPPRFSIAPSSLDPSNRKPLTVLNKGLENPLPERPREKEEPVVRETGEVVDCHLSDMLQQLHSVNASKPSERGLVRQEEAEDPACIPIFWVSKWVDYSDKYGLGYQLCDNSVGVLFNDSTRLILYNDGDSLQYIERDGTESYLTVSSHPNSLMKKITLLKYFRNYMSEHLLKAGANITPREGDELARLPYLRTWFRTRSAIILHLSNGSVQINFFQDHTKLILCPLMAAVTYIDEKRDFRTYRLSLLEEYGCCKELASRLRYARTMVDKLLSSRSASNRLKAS
Assay [11] addresses Cyclin-dependent kinase 6 (Homo sapiens) (UniProt Q00534).
For assay [12], the target named is Calcium/calmodulin-dependent protein kinase type II subunit beta (Homo sapiens) (UniProt Q13554).
Calcium/calmodulin-dependent protein kinase type II subunit beta (Homo sapiens), sequence (Q13554 whole entry): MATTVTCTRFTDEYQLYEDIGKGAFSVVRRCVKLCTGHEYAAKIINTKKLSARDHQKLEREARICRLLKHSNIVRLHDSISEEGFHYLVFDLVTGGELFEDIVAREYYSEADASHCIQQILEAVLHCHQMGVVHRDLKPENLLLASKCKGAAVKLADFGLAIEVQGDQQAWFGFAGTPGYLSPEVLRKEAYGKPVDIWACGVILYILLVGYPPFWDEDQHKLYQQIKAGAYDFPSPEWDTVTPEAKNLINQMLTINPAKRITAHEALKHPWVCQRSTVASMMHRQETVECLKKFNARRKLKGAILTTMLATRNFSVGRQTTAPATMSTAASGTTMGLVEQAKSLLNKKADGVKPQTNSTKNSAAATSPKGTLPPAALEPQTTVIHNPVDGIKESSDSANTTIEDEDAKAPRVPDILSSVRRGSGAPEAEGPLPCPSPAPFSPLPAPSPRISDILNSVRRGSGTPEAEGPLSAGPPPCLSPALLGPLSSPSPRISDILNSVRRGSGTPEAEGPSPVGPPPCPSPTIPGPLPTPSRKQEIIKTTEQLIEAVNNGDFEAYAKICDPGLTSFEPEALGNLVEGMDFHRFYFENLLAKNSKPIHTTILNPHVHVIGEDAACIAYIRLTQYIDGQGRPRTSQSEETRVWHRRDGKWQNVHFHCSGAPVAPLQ
In assay [13] the target is Serine/threonine-protein kinase Chk2 (Homo sapiens, UniProt O96017).
In assay [14] the target is T1, Mitogen-activated protein kinase kinase kinase 5 (Homo sapiens) (UniProt Q99683).
T1 sequence (whole entry): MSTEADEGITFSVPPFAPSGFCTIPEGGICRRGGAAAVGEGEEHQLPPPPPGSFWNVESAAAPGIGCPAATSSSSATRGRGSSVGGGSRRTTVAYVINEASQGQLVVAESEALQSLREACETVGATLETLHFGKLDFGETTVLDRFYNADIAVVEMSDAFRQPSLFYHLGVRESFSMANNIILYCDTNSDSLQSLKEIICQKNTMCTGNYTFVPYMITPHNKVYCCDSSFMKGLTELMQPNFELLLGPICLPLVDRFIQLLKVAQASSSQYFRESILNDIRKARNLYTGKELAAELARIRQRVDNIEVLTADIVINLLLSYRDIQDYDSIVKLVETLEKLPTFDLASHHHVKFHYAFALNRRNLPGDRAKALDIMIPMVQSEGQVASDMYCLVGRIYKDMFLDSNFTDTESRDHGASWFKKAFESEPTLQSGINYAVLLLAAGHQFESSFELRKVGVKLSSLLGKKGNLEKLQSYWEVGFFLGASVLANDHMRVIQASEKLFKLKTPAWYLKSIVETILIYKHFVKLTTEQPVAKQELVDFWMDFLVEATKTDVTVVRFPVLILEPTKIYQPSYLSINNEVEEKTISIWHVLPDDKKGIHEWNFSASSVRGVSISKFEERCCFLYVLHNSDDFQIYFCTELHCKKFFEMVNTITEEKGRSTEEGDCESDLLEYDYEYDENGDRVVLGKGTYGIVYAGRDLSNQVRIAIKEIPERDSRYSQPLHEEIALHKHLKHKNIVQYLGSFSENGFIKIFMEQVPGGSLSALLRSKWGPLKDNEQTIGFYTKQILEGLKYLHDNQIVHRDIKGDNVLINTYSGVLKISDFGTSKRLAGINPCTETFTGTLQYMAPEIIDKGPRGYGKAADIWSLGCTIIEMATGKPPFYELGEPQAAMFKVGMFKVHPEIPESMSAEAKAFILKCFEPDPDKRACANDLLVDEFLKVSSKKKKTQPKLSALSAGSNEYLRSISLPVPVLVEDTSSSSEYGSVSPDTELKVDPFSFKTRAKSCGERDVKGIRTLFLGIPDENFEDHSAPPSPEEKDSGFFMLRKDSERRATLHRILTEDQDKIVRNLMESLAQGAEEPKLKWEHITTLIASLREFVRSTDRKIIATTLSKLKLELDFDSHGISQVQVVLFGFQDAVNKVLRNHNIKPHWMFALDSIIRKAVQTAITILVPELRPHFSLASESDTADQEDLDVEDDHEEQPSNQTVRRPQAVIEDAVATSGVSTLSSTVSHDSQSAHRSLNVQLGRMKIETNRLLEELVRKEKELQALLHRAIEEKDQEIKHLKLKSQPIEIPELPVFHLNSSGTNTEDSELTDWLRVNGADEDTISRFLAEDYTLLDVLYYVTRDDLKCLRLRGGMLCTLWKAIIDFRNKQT

Assay [15] concerns the target Serine/threonine-protein kinase 10 (Homo sapiens) (UniProt O94804).
For assay [16], the target named is Serine/threonine-protein kinase VRK2 (Homo sapiens) (UniProt Q86Y07).
Serine/threonine-protein kinase VRK2 (Homo sapiens), sequence (Q86Y07 whole entry): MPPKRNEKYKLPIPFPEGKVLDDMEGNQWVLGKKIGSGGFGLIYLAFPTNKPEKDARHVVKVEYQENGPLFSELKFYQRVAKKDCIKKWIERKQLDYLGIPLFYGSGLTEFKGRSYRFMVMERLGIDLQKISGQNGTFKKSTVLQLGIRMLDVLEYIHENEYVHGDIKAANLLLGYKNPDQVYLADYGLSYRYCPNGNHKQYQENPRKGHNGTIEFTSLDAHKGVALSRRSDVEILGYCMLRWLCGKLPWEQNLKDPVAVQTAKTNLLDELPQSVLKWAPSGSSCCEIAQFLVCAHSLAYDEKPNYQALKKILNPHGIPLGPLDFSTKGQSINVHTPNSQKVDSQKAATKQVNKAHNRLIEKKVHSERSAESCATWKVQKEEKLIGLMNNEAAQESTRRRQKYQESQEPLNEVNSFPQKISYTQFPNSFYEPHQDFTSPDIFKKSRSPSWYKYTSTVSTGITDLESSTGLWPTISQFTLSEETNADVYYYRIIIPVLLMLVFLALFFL
Assay [17] deals with T2, Serine/threonine-protein kinase 17A (Homo sapiens) (UniProt Q9UEE5).
T2 sequence (whole entry): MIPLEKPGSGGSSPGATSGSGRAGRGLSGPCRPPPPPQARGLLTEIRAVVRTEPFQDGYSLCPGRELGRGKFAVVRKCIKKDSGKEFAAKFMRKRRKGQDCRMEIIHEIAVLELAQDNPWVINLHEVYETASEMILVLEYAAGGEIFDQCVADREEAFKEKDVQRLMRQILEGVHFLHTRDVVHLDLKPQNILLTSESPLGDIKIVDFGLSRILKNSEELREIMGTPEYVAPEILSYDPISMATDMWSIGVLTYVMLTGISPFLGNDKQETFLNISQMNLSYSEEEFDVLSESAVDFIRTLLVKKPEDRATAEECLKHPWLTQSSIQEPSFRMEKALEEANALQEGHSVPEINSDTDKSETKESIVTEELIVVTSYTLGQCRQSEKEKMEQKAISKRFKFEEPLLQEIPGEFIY

Assay [18] addresses Serine/threonine-protein kinase 26 (Homo sapiens) (UniProt Q9P289). This is another data set of the same source.
Assay [19] concerns the target Serine/threonine-protein kinase PAK 5 (Homo sapiens) (UniProt Q9P286).
Assay [20] concerns the target Serine/threonine-protein kinase 16 (Homo sapiens) (UniProt O75716).
The target in assay [21] is TRAF2 and NCK-interacting protein kinase (Homo sapiens) (UniProt Q9UKE5).

Glycogen synthase kinase-3 beta, sequence (P49841 whole entry, looked up): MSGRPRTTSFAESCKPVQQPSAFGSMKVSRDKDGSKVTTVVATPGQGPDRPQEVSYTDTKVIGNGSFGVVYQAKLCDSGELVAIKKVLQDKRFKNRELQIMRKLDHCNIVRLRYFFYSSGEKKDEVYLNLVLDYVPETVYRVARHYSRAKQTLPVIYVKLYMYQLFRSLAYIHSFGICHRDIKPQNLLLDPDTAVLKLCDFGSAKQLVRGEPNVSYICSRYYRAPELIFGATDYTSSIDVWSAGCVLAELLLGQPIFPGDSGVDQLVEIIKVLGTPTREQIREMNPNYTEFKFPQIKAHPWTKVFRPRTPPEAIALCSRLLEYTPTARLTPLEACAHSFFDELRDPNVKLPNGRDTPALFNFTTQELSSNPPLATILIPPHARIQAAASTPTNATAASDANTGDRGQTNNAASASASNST
Serine/threonine-protein kinase PAK 5 (Homo sapiens), sequence (Q9P286 whole entry, looked up): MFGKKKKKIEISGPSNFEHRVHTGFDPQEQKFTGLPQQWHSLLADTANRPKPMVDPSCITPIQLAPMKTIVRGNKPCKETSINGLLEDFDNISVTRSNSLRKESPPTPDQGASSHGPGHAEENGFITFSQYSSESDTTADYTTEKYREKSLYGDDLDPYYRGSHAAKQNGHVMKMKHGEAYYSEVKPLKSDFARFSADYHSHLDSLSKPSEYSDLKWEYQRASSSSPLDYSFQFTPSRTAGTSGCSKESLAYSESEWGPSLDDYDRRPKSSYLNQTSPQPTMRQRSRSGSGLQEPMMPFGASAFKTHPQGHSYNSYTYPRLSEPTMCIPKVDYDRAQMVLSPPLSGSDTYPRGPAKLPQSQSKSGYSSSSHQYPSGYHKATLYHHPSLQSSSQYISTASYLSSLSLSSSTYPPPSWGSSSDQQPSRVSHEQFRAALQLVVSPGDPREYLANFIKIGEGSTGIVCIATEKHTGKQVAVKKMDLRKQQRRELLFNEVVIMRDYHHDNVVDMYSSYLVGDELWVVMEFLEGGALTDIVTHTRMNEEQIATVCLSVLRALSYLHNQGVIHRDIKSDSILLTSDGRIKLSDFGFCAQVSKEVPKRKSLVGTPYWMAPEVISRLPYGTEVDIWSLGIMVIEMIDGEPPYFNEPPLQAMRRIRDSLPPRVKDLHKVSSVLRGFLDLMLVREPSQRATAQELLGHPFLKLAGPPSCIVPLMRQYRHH
Serine/threonine-protein kinase pim-2, sequence (Q9P1W9 whole entry, looked up): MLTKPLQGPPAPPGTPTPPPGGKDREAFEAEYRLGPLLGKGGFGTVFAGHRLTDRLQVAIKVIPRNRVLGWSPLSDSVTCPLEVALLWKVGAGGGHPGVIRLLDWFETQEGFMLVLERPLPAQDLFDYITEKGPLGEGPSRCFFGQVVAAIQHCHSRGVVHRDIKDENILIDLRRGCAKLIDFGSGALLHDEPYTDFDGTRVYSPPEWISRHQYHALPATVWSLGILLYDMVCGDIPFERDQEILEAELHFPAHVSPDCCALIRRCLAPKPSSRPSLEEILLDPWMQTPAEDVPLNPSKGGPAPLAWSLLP

A word on the ΔTm: it is the change in melting temperature against a reference sample. Take `Nc1nc(Nc2ccc(S(N)(=O)=O)cc2)nn1C(=S)Nc1c(F)cccc1F`: the ΔTm in [1] amounted to 8 °C; in assay [2], 2 °C; in [3] it was 11.1 °C; in assay [4] it was 0.6 °C; in assay [5], 0.7 °C; in [6] it was 3.3 °C. Further, the ΔTm was 3.6 °C in [7]; 0.2 °C in assay [8]; 10.4 °C in assay [9]; 4.3 °C in assay [10]; 4.6 °C in [11]; 1.6 °C in assay [12]. For the same compound, the thermal shift (ΔTm) in [13] was found to be 8.6 °C; in assay [14] it was 16.8 °C; in assay [15], 15.5 °C; in [16], 2 °C; in [17] it was 12.6 °C; in assay [18], 8.3 °C. Besides, the ΔTm in assay [19] turned out to be 5.5 °C; in assay [20] it was 7.8 °C; in assay [21], 9.9 °C.
Take `O=c1sn(Cc2ccccc2)c(=S)n1Cc1ccccc1`: the ΔTm was -1 °C in assay [1]; -0.1 °C in assay [2]; 0.4 °C in assay [3]; -0.2 °C in assay [4]; 0.6 °C in [5]; 0.3 °C in [6]. The thermal shift (ΔTm) was -0.3 °C in [7]; 0.1 °C in [8]; 2.3 °C in [9]; 1.3 °C in [10]; -0.4 °C in assay [11]; 1 °C in [12]. Besides, the ΔTm came to 0.3 °C in [13]; 0.2 °C in assay [14]; 0.9 °C in [15]; 0.3 °C in assay [16]; 0.2 °C in [17]; 0.5 °C in [18]. Moreover, the ΔTm in assay [19] was 0.5 °C; in [20] it was -0.4 °C; in assay [21], 0 °C.
Regarding `NC(=O)c1ccc(-c2nc(-c3ccc4c(c3)OCCO4)c(-c3ccccn3)[nH]2)cc1`, the ΔTm in [1] is 0.6 °C; in assay [2], 1 °C; in assay [3] it was -1.1 °C; in assay [4] it was -0.2 °C; in [5], 0.3 °C; in assay [6] it was 0.1 °C. For the same compound, the ΔTm in assay [7] was -0.1 °C; in [8] it was -0.7 °C; in assay [9] it was 1.3 °C; in [10], -0.5 °C; in assay [11], 0.4 °C; in [12], 1 °C. Moreover, the ΔTm is -0.3 °C in [13]; 0.3 °C in [14]; 0.4 °C in [15]; 0.5 °C in assay [16]; -0.3 °C in assay [17]; -0.2 °C in [18]. Besides, the shift in melting temperature (ΔTm) in [19] is 0.4 °C; in [20], 0.1 °C; in assay [21] it was -0.6 °C.
For the compound `O=C(O)/C=C/c1cc(CO)ccc1CO`, the thermal shift (ΔTm) in assay [1] was 0.1 °C; in assay [2], 0 °C; in assay [3] it was 0.4 °C; in assay [4] it was 1.6 °C; in assay [5] it was 0 °C; in [6], -0.1 °C. Moreover, the ΔTm in assay [7] was 0.2 °C; in [8] it was -0.2 °C; in assay [9] it was 0.8 °C; in assay [10] it was 0.3 °C; in assay [11], 0.3 °C; in assay [12], 0.4 °C. Moreover, the shift in melting temperature (ΔTm) in assay [13] turned out to be 0.6 °C; in assay [14], 1.2 °C; in assay [15] it was 0.5 °C; in assay [16], 0.3 °C; in [17] it was 0.6 °C; in assay [18], 0.2 °C. In addition, the values for the shift in melting temperature (ΔTm) in assay [19], in [20] and in assay [21] were -4.4 °C, 0.3 °C and 0.8 °C, respectively.
Regarding `Cn1cc(C2=C(c3cn(CCCSC(=N)N)c4ccccc34)C(=O)NC2=O)c2ccccc21`, the ΔTm in assay [1] stood at 12.8 °C; in [2], 3.1 °C; in [3], 2.3 °C; in assay [4], 5.6 °C; in assay [5], 1.1 °C; in assay [6], 4.2 °C. For the same compound, the ΔTm in assay [7] is 0.7 °C; in assay [8], -1 °C; in [9], 0 °C; in assay [10] it was 0.3 °C; in assay [11], 3.2 °C; in assay [12] it was 2 °C. Moreover, the ΔTm was 7 °C in assay [13]; 0.3 °C in assay [14]; 7.5 °C in [15]; 0.9 °C in assay [16]; 4.3 °C in assay [17]; -0.6 °C in assay [18]. The shift in melting temperature (ΔTm) came to 1.9 °C in assay [19], 3.9 °C in [20] and 3.8 °C in assay [21].
As for `N#C/C(=C1/Nc2ccccc2S1)c1ccnc(NCCc2cccnc2)n1`, the shift in melting temperature (ΔTm) in [1] amounted to 11.4 °C; in [2] it was 2.3 °C; in [3], 2 °C; in assay [4], 7.4 °C; in assay [5] it was 2.1 °C; in assay [6] it was 2.6 °C. Further, the shift in melting temperature (ΔTm) in [7] was determined as 1.7 °C; in assay [8], 1.7 °C; in assay [9], 7.5 °C; in assay [10], 2.1 °C; in assay [11], 3.5 °C; in assay [12], 1.8 °C. The ΔTm is 5.2 °C in assay [13]; 3.6 °C in assay [14]; 1.4 °C in assay [15]; 1.8 °C in assay [16]; 4.7 °C in assay [17]; 0.9 °C in assay [18]. The figures for the ΔTm in assay [19], in assay [20] and in assay [21] were 1.8 °C, 5.5 °C and 3.4 °C, respectively.
